Experiment [1] deals with T1, 5-hydroxytryptamine receptor 1A (Rattus norvegicus, UniProt P19327).
T1 sequence (P19327 whole entry): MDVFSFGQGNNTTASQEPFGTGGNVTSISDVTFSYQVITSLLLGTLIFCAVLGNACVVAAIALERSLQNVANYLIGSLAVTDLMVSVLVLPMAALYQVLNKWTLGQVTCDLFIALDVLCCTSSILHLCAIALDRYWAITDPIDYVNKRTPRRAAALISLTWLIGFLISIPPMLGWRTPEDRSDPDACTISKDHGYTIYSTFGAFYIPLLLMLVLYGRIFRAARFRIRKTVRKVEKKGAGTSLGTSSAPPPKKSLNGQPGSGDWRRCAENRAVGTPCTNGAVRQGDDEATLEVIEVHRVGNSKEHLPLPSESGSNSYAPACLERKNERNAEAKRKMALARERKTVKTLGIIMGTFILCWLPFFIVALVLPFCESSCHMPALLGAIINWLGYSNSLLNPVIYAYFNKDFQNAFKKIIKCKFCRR
Nature of the experiment: Displacement of [3H]8-OH-DPAT from rat hippocampal 5-hydroxytryptamine 1A receptor. It is filed as tissue-based, Hippocampus.

Experiment [2] concerns the target 5-hydroxytryptamine receptor 1B (Rattus norvegicus, UniProt P28564). Description: Binding affinity against 5-hydroxytryptamine 1B receptor in rat striatal membranes using [3H]5-HT as radioligand. Type of experiment: cell membranes, Striatum, Membrane.
Experiment [3] concerns the target T1, 5-hydroxytryptamine receptor 1A. Description: The compound was evaluated for binding affinity against 5-hydroxytryptamine 1A receptor in rat hippocampal membranes using [3H]8-OH-DPAT as radioligand in the presence of 3*10e-5 M GTP gamma S. It is filed as cell membranes, Hippocampus.
The target is the same in experiment [4]. Nature of the experiment: The compound was evaluated for binding affinity against 5-hydroxytryptamine 1A receptor in rat hippocampal membranes using [3H]8-OH-DPAT as radioligand in the presence of 1 mM of MnCl2. Type of experiment: cell membranes, Hippocampus.

“And” between values parts separate entries of the source, which are not always exact repeats. Equal entries are not always repeated.

Sequence of 5-hydroxytryptamine receptor 1B (P28564 whole entry): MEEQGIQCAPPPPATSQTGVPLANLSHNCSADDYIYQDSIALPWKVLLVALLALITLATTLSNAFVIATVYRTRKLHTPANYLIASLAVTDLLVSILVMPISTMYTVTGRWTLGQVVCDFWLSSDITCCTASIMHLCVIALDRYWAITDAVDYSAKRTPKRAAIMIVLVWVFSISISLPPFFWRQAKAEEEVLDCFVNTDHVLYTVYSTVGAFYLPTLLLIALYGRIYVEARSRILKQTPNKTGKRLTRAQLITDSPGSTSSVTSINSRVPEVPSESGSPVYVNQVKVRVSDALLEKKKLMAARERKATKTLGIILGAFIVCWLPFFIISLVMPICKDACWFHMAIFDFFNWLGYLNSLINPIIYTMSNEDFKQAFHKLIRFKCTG

The Ki is the equilibrium dissociation constant of an inhibitor or competing ligand from its target. Regarding `COc1ccc(C)c2c1CC(N)CC2` (stereo not drawn), the results for the Ki in experiment [1] and in experiment [2] were 436 nM and above 10000 nM, respectively.
With `CCCN(CCC)C1CCc2cc3ccccc3c(O)c2C1` (stereo not drawn), the Ki in experiment [1] was 2520 nM; in experiment [2], above 1000 nM.
The matching figures for `CCCN(CCC)C1CCc2cccc(OC)c2C1` (stereo not drawn): 3.05 nM and 3970 nM.
For the molecule `CCCN(CCC)C1CCc2c(C)ccc(O)c2C1` (stereo not drawn), the inhibitory constant (Ki) in experiment [1] is 18.4 nM and 30.8 nM; in experiment [3], 81.1 nM; in experiment [2], above 10000 nM; in experiment [4], 46.6 nM.
`COc1cc2ccccc2c2c1CC(N)CC2` (stereo not drawn): the inhibition constant (Ki) was 1060 nM in experiment [1] and 76.3 nM in experiment [2].
For the molecule `COc1c2c(cc3ccccc13)CCC(N)C2` (stereo not drawn), the Ki worked out at 2520 nM in experiment [1] and 23 nM in experiment [2].
For the molecule `COc1cccc2c1CC(N)CC2` (stereo not drawn), the Ki in experiment [1] is 158 nM; in experiment [2], 902 nM.
In the case of `CCCN(CCC)C1CCc2c(c(OC)cc3ccccc23)C1` (stereo not drawn), the inhibitory constant (Ki) in experiment [1] was determined as 1300 nM; in experiment [2] it was 6340 nM.
Turning to `CC(C)(C)NCC(O)COc1cccc2c1SCCC2` (stereo not drawn) [TERTATOLOL], the inhibition constant (Ki) in experiment [1] is 18.2 nM; in experiment [3], 37.6 nM; in experiment [4], 7.71 nM.
Turning to `CCCN(CCC)C1CCc2c(C)ccc(OC)c2C1` (stereo not drawn), the figures for the Ki in experiment [1] and in experiment [2] were 115 nM and 575 nM, respectively.

(Values after ChEMBL document CHEMBL1127118 (Bioorg Med Chem Lett, 1993).)
